Data from patent US11459330B2, “Substituted bicyclic heterocyclic compounds as PRMT5 inhibitors” (LUPIN LIMITED, priority 2017, dated 2022).

Experiments:
Z-138 cells [1] = assay: Anti-cancer assay (Z-138), cell viability CellTiterGlo; type: cell-based; conditions: Homo sapiens, 96 h, activity range, lower bound in pM, upper bound in nM
Method: (§1) Anticancer Activity Assay
(§2) Z-138 cells were seeded at a density of 2000-3000 cells per well in culture media (IMDM+10% FBS). PANC-1 (ATCC, CRL-1469™) and MIA PaCa-2 (ATCC, CRL-1420™) cells were seeded at a density of 200-300 cells per well in culture media (DMEM+10% FBS). Cells were seeded in opaque, flat bottomed tissue culture grade 96-well plates and Z-138 cells (suspension) were seeded and treated on the same day with various concentrations of test compounds. PANC-1 and MIA PaCa-2 cells, being adherent, were kept for overnight settlement at standard cell culture conditions (37° C., 5% CO2). On the following day, cells were treated with various concentrations of test compounds. Cells were treated with test compounds for a period of 96 h, 7 days and 10 days, for Z-138 cells, PANC-1 cells and MIA PaCa-2 cells, respectively. Cell viability was assessed using CellTiterGlo™ (Promega, USA) as per manufacturer's instructions. Relative Light Units (RLU) were read in Synergy™ 2 reader (Biotek, USA). The assay measures cellular ATP as an indicator of cell viability. RLU is proportional to the number of viable cells in the respective well.
(§3) % inhibition of cell viability was calculated relative to the vehicle control samples containing media with 0.1% DMSO alone as per the formula below. (Avg. of Untreated Control−Avg. of Test)×100 Avg. of Untreated Control
(§4) The IC50 values of individual compounds were calculated with Non Linear Regression Analysis using Graph Pad Prism (Graph Pad software, Inc, USA).
Anti-Cancer Assay (Z-138)

PRMT5:MEP50 = PRMT5:MEP50 (Homo sapiens, UniProt O14744); assay: PRMT5 biochemical HTRF assay (Biochemical Assay Protocol 1 / 2); conditions: biotinylated H4R3 substrate, 1 μM SAM, protocol 1 or 2 not given, activity range 300 pM to 950 pM, read-out: IC50 (PRMT5 inhibition), activity range
Method: Biochemical Assay Protocol 1
(§5) Inhibitory effect of compounds on PRMT5 was assessed using HTRF detection technology in biochemical assay. Biotinylated H4R3 (residues 1-21) was used as a substrate. Compounds were pre-incubated with 15-25 ng PRMT5:MEP50 per well of a 384-well plate for 30 min at room temperature in the assay buffer containing 20 mM Bicine, pH 7.6, 25 mM NaCl, 2 mM DTT, 0.01% Chicken albumin and 0.01% Tween-20. Reaction was initiated by adding 1 μM of SAM and 50 nM biotinylated H4R3. Total assay volume was 15 μL. Reaction was continued for 120 min at room temperature. Then detection solution containing Streptavidin-Eu cryptate, anti-rabbit IgG-XL-665, Histone H4R3 Dimethyl Symmetric (H4R3me2s) Polyclonal Antibody, all prepared in HTRF detection buffer was added and further incubated for 30 min at room temperature. HTRF signal was recorded in PHERAStar microplate reader. Ratio of signal obtained at 665 nm and 620 nm was used to compute the percent inhibition of compound as follows % Inhibition=100−((Test Ratio−Negative control Ratio)/(Positive control Ratio−Negative control Ratio)*100) where Positive control=PRMT5+SAM+H4R3 Negative control=PRMT5+H4R3 Biochemical Assay Protocol 2
as §5, with “2.5” for “15-25”, “4 h” for “120 min”, “control=PRMT5+H4R3” for “control=PRMT5+H4R3 Biochemical Assay Protocol 2”

Z-138 cells [2] = assay: SDMA inhibition assay; type: cell-based; conditions: Homo sapiens, 48 h, activity range 1.1 nM to 50 nM
Method: SDMA Inhibition Assay Protocol Z-138 cells (ATCC, CRL-3001™) were seeded at a density of 1 million cells/well in transparent, flat bottomed tissue culture grade 48-well plates. Cells were treated with various concentration of test compounds for a period of 48 h. Cell lysate was prepared using 1×CST Lysis buffer (Cell Signaling Technology, USA) and 500 ng/well/50 μL of lysate in pH 9.6 carbonate buffer was coated on 96-well Maxisorb plate and incubated overnight at 4° C. The plate was washed twice in 1×PBS containing 0.05% Tween 20 and blocked in 1% BSA for 1 h at ambient temperature. Further, the plate was incubated first with primary antibody (anti-SDMA antibody; CST #13222s) at ambient temperature for 2 h and then with HRP-conjugated secondary antibody at ambient temperature for 1 h with 2 intermittent washing steps in between.
For luminiscence based detection, HRP substrates (substrate A+substrate B in a 1:1 proportion) were added followed by luminiscence reading after 30 min in Synergy™ 2 reader (Biotek, USA).
For absorbance based detection, TMB substrate was added followed by addition of STOP solution (2N H2SO4) post colour development and absorbance ([…]) was measured in Synergy™ 2 reader (Biotek, USA). % inhibition of SDMA was calculated relative to the vehicle control samples containing media with 0.1% DMSO alone as per the formula below. (Avg. of Untreated Control−Avg. of Test)×100 Avg. of Untreated Control
as §4

PANC-1 cells = assay: Anti-cancer assay (Panc-1), cell viability CellTiterGlo; type: cell-based; conditions: Homo sapiens, PANC-1, 168 h, 7 days
Method: as §1, §2, §3, §4
Anti-Cancer Assay (Panc-1)

[3] = activity range, lower bound in pM, upper bound in nM

PRMT5:MEP50, sequence (O14744 whole entry): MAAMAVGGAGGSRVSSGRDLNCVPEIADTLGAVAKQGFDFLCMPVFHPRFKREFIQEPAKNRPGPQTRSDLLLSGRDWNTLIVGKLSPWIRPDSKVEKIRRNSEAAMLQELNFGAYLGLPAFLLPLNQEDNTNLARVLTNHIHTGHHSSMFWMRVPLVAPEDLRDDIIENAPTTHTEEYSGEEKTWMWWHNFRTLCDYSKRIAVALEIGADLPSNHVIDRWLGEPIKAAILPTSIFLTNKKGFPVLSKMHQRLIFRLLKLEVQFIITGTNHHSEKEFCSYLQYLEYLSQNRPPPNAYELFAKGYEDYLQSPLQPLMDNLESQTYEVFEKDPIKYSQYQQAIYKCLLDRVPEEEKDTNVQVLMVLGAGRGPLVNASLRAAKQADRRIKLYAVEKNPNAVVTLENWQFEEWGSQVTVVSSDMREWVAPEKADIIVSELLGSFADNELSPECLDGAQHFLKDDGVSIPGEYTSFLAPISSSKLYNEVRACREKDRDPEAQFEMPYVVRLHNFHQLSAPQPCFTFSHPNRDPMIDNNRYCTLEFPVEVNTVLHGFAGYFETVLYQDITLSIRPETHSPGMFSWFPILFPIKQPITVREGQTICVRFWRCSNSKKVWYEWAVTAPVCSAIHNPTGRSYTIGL
PRMT5:MEP50, sequence (Q9BQA1 whole entry partner): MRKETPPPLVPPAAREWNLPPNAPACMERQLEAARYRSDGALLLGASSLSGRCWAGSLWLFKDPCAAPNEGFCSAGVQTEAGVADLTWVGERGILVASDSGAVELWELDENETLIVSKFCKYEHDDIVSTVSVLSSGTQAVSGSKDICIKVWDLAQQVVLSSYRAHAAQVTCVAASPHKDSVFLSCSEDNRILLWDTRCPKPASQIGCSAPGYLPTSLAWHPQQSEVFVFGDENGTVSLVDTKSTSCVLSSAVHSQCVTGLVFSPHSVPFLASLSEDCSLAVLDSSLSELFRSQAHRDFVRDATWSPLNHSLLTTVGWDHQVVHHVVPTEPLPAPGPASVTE

Compound	IC50 (Z-138 cells [1])	IC50 (PRMT5:MEP50)	IC50 (Z-138 cells [2])	IC50 (PANC-1 cells; [3])	IC50 (PANC-1 cells; activity range 20 nM to 100 nM)
CC(Oc1cc(F)c2cc(Cl)c(N)nc2c1)C1=C[C@@H](n2ccc3c(N)ncnc32)[C@H](O)[C@@H]1O (stereo partly drawn) [Compound-20b, (1S,2R,5R)-3-(1-((2-amino-3-chloro-5-fluoroquinolin-7-yl)oxy)ethyl)-5-(4-amino-7H-pyrrolo[2,3-d]pyrimidin-7-yl)cyclopent-3-ene-1,2-diol]	101 to 1000 pM				
Cc1ncnc2c1ccn2[C@@H]1C=C(C(C)Cc2cc(F)c3cc(Cl)c(N)nc3c2)[C@@H](O)[C@H]1O (single isomer, unassigned) [Compound-35b]		0.3 to 0.95 nM	1.1 to 50 nM		
Nc1nc2c(F)c(CCC3=C[C@@H](n4ccc5c(N)ncnc54)[C@H](O)[C@@H]3O)ccc2cc1Cl [Compound-26, (1S,2R,5R)-3-(2-(2-amino-3-chloro-8-fluoroquinolin-7-yl)ethyl)-5-(4-amino-7H-pyrrolo[2,3-d]pyrimidin-7-yl)cyclopent-3-ene-1,2-diol]	101 to 1000 pM	0.3 to 0.95 nM			
Cn1cc(-c2ncnc3c2ccn3[C@@H]2C=C(CCc3cc(F)c4cc(Cl)c(N)nc4c3)[C@@H](O)[C@H]2O)cn1 [Compound-32, (1S,2R,5R)-3-(2-(2-amino-3-chloro-5-fluoroquinolin-7-yl)ethyl)-5-(4-(1-methyl-1H-pyrazol-4-yl)-7H-pyrrolo[2,3-d]pyrimidin-7-yl)cyclopent-3-ene-1,2-diol]			1.1 to 50 nM		
CC(Cc1ccc2cc(Br)c(N)nc2c1)C1=C[C@@H](n2ccc3c(N)ncnc32)[C@H](O)[C@@H]1O (stereo partly drawn) [7b, (1S,2R,5R)-3-(1-(2-Amino-3-bromoquinolin-7-yl)propan-2-yl)-5-(4-amino-7H-pyrrolo[2,3-d]pyrimidin-7-yl)cyclopent-3-ene-1,2-diol]	101 to 1000 pM			300 to 20000 pM	
CC(Cc1cc(F)c2cc(Cl)c(N)nc2c1)C1=C[C@@H](n2ccc3c(N)ncnc32)[C@H](O)[C@@H]1O (single isomer, unassigned) [Compound-33a]			1.1 to 50 nM		20000 to 100000 pM
Cc1ncnc2c1ccn2[C@@H]1C=C(CCc2cc(F)c3cc(Cl)c(N)nc3c2)[C@@](C)(O)[C@H]1O [Compound-39, (1S,2R,5R)-3-(2-(2-amino-3-chloro-5-fluoroquinolin-7-yl)ethyl)-2-methyl-5-(4-methyl-7H-pyrrolo[2,3-d]pyrimidin-7-yl)cyclopent-3-ene-1,2-diol]	101 to 1000 pM				20000 to 100000 pM
Nc1nc2cc(CCC3=C[C@@H](n4ccc5c(N)ncnc54)[C@H](O)[C@@H]3O)c(F)cc2cc1Cl [Compound-25, (1S,2R,5R)-3-(2-(2-amino-3-chloro-6-fluoroquinolin-7-yl)ethyl)-5-(4-amino-7H-pyrrolo[2,3-d]pyrimidin-7-yl)cyclopent-3-ene-1,2-diol]		0.3 to 0.95 nM	1.1 to 50 nM	300 to 20000 pM	
CC(Cc1ccc2cc(Br)c(N)nc2c1)C1=C[C@@H](n2ccc3c(N)ncnc32)[C@H](O)[C@@H]1O (single isomer, unassigned) [Compound-7a]		0.3 to 0.95 nM		300 to 20000 pM	
Nc1nc2cc(CCC3=C[C@@H](n4ccc5c(N)ncnc54)[C@H](O)[C@@H]3O)ccc2cc1Cl [Compound-2, (1S,2R,5R)-3-(2-(2-amino-3-chloroquinolin-7-yl)ethyl)-5-(4-amino-7H-pyrrolo[2,3-d]pyrimidin-7-yl)cyclopent-3-ene-1,2-diol]		0.3 to 0.95 nM		300 to 20000 pM	

Further lines, results first:

IC50 (Z-138 cells [1])	IC50 (PRMT5:MEP50)	IC50 (Z-138 cells [2])	IC50 (PANC-1 cells; [3])	IC50 (PANC-1 cells; activity range 20 nM to 100 nM)	Compound
101 to 1000 pM		1.1 to 50 nM	300 to 20000 pM		Nc1nc2cc(CC[C@@]34C[C@@H]3[C@@H](n3ccc5c(N)ncnc53)[C@H](O)[C@@H]4O)c(F)cc2cc1Br [Compound-64, (1R,2R,3S,4R,5S)-1-(2-(2-amino-3-bromo-6-fluoroquinolin-7-yl)ethyl)-4-(4-amino-7H-pyrrolo[2,3-d]pyrimidin-7-yl)bicyclo[3.1.0]hexane-2,3-diol]
	0.3 to 0.95 nM		300 to 20000 pM		Nc1nc2cc(CC[C@@]34C[C@@H]3[C@@H](n3ccc5c(N)ncnc53)[C@H](O)[C@@H]4O)ccc2cc1Cl [Compound-61, (1R,2R,3S,4R,5S)-1-(2-(2-Amino-3-chloroquinolin-7-yl)ethyl)-4-(4-amino-7H-pyrrolo[2,3-d]pyrimidin-7-yl)bicyclo[3.1.0]hexane-2,3-diol]
101 to 1000 pM	0.3 to 0.95 nM	1.1 to 50 nM			CC(Cc1ccc2cc(Br)c(N)nc2c1)[C@@]12C[C@@H]1[C@@H](n1ccc3c(N)ncnc31)[C@H](O)[C@@H]2O (single isomer, unassigned) [Compound-76a]
101 to 1000 pM		1.1 to 50 nM		20000 to 100000 pM	Nc1nc2cc(CC[C@@]34C[C@@H]3[C@@H](n3ccc5c(N)ncnc53)[C@H](O)[C@@H]4O)c(F)cc2cc1Cl [Compound-62, (1R,2R,3S,4R,5S)-1-(2-(2-Amino-3-chloro-6-fluoroquinolin-7-yl)ethyl)-4-(4-amino-7H-pyrrolo[2,3-d]pyrimidin-7-yl) bicyclo[3.1.0]hexane-2,3-diol]
	0.3 to 0.95 nM		300 to 20000 pM		Nc1ccc2c(F)cc(CCC3=C[C@@H](n4ccc5c(N)ncnc54)[C@H](O)[C@@H]3O)cc2n1 [Compound-47, (1S,2R,5R)-3-(2-(2-amino-5-fluoroquinolin-7-yl)ethyl)-5-(4-amino-7H-pyrrolo[2,3-d]pyrimidin-7-yl)cyclopent-3-ene-1,2-diol]
